Measurements taken from patent US20080161294A1, “Urea derivative, medicinal composition containing the same, and medicinal use of these” (priority 2005, published 2008).

Key:
[1] = test system: anesthetized rats infused with hypotonic solution; assay: Antidiuretic effect on diuresis induced by hypotonic solution in anesthetized rats; assay type: in vivo, rat; details: 10 μg/kg intravenously; for Antidiuretic effect (decreasing rate of urine volume): anesthetized male SD rats, against pre value; for Duration tine: period until decreasing rate of urine volume restored to −20%
Protocol: The Study of Antidiuretic Effect
The Confirmation Study of Antidiuretic Effect on the Diuretic Activity Induced by Loading Hypotonic Solution in the Anesthetized Rats Infused with Hypotonic Solution
It has been reported that plasma AVP level was decreased with intravenous infusion of hypotonic solution (J. Endocrinol., Vol. 141, pp. 59-67, 1994). The antidiuretic effect of the test compounds in the rats induced a diuretic condition was determined by the method as reported by Angchanpen et al (Br. J. Pharmacol., Vol. 93, pp. 151-155, 1988). The test compounds were dissolved in dimethylsulfoxide at 10 mM, and used in the study. Male SD rats (200-400 g weight) were anesthetized with 100 mg/kg of Inactin (SIGMA) intraperitonealy and each cannula was inserted into trachea, jugular vein, bladder and femoral vein, respectively. The hypotonic solution (0.3% NaCl, 0.83% glucose) was infused via femoral vein at 9 mL/hour. The urine volume obtained via cannula inserted into bladder was measured every 10 minutes. After steady-state of urine volume for three 10 minutes periods, test compounds prepared as mentioned above were administered intravenously at 10 μg/kg via cannula inserted into jugular vein. Dimethylsulfoxide/saline (0.3%) was used as a vehicle. The average of urine volume measured for three 10 minutes periods before the administration was defined as the pre value (0%). After the administration of the test compounds, the urine volume was measured every 10 minutes. The antidiuretic effect, namely the decrease of the urine volume, induced by administration of test compounds was calculated from the decreasing rate of urine volume (minus %) against the pre value. Because maximum decreasing rate of the urine volume after administration of vehicle was −20% in this study, the period that decreasing rate of urine volume restored to −20% after administration of the test compounds was considered as indication of duration time of the test compounds.

[2] = biological target: T1, human V2 receptor (Homo sapiens, UniProt P30518); assay: Binding experiment for human V2 receptor ([3H]-AVP displacement, CHO cell membranes); parameters: purchased Packard BioScience; host or cells: CHO cell membranes; details: inhibition of [3H]-AVP binding, CHO cell membranes expressing human V2 receptor; Ki calculated from IC50 and Kd; read-out: Affinity to human V2 receptor Ki
T1 sequence (P30518 whole entry): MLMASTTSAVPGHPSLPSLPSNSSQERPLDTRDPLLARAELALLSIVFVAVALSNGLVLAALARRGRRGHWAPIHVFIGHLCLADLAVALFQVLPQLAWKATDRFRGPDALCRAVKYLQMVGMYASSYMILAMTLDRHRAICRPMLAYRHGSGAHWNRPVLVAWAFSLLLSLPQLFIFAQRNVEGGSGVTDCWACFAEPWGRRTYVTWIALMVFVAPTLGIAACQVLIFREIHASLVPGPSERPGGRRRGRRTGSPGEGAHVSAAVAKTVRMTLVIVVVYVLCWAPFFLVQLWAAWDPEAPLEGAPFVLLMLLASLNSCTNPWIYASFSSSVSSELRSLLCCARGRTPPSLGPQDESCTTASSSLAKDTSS
Protocol: Binding Experiment for Human V2 Receptor
Test compounds were dissolved in dimethylsulfoxide at 10 mM. The affinities for human V2 receptor were determined by an inhibition against [^3H]-Arginie vasopressin (AVP) (Perkin elmer Japan) binding to the human V2 receptor using CHO cell membranes expressed human V2 receptor (Packard BioScience). Cell membranes suspension was prepared by suspending the cell membranes as mentioned above with Assay buffer (50 mM Tris-HCl, 10 mM MgCl2, 0.1% bovine serum albumin (BSA), pH7.4) at an adequate protein concentration. The test compound solutions were prepared by diluting the dimethylsulfoxide solution of the test compound as mentioned above with Assay buffer at final concentration of 10 nM, 100 nM, 1 μM and 10 μM (in this diluting procedure, concentration of dimethylsulfoxide was adjusted to be 0.5% at each concentration of the test compound). Cell membranes suspension (50 μL), 3 nM of [^3H]-AVP (50 μL), Assay buffer (50 μL) and the solution of the test compounds at each concentrations (50 μL) were added to MultiScreen 96-well plate (Millipore) and the mixture was incubated for an hour at 25° C. with shaking slightly. After filtration by aspiration, the plate was washed with ice-cold washing buffer (50 mM Tris-HCl, 10 mM MgCl2, pH 7.4) for three times. After dry the plate, Microscinti-20 (Packard) was added to each well and the plate was shaken slightly, and then radioactivities of each well were counted with a micro plate scintillation counter, TopCount (Packard). Non-specific binding of [^3H]-AVP for cell membranes was determined by adding 1 μM of cold AVP substituted for the test compounds. The concentration of the test compounds inhibiting the specific binding of [^3H]-AVP by 50% was considered as IC50 value.
The Calculation of Kd Value of [^3H]-AVP for the Cell Membranes Expressed Human V2 Receptor
The suspension of the cell membranes expressed human V2 receptor was prepared with diluting adequately with the Assay buffer as mentioned above. In consideration for the radioactivity of [^3H]-AVP, six different concentrations (final concentration; ranging from approximately 100 pM to 6000 pM) of [^3H]-AVP were prepared by serial dilution by from 2 to 3 fold with the Assay buffer. The cell membranes suspension (50 μL), each concentrations of [^3H]-AVP (50 μL), the Assay buffer (50 μL) and 1 μM of cold AVP or the Assay buffer (50 μL) were added to MultiScreen 96-well plate (Millipore) and the mixture was incubated for an hour at 25° C. with shaking slightly. The specific bindings (B value) of each concentrations of the [^3H]-AVP were determined by the method as mentioned above and free-bound contents (F value) at each concentrations of the [^3H]-AVP were determined. The Kd value was calculated by Scatchard analysis using the B value and the F value.

[3] = biological target: T1, human V2 receptor; assay: Study to confirm the agonism of human V2 receptor (intracellular Ca2+, HEK293 cells coexpressing human V2 receptor and Gqs chimeric protein); assay type: cell-based; parameters: expressed in transfected cells; host or cells: HEK293 cells (American Type Culture Collection), transient transfection with pCI-neo/hV2 and pLEC-Gqs5; details: for EC50: intracellular Ca2+ response, HEK293 cells coexpressing human V2 receptor and Gqs; for I A (intrinsic activity): maximum response relative to AVP = 1.00
Protocol: The Study to Confirm the Agonism of Human V2 Receptor
The experiment to confirm the response of the test compounds to human V2 receptor was carried out using the cells prepared as described below in order to use this confirmation study to see the agonism of human V2 receptor of the test compounds.
The test compounds were dissolved in dimethylsulfoxide at 10 mM and solutions of the test compounds were prepared by 10-fold serial dilution with the Assay buffer (0.1% BSA, 20 mM HEPES/Hank's balanced salt solution, pH 7.4) at the concentration of 0.1 nM to 10 μM, which were used in this study.
Human V2 receptor couples with Gs protein, one of the G-coupling protein, and consequently produces cyclic adenosine 3′, 5′-monophosphate (cAMP) via adenylate cyclase. This cAMP produce can be substituted to intracellular increase of Ca^2+ with coexpressing Gqs, a chimeric protein, and human V2 receptor (Mol. Pharmacol., Vol. 50, pp. 885-890, 1996). The responses of the test compounds for human V2 receptor were quantified by measuring this intracellular Ca^2+. The changes of intracellular Ca^2+ after adding the test compounds at each concentration as mentioned above (0.1 nM to 10 μM) were measured with a FlexStation (Molecular Devices) using a FLIPR CALCIUM ASSAY KIT (Molecular Devices).
The intrinsic activities (IA) of the test compounds were calculated from the maximum response of the test compounds as that of AVP was considered to be 1.00. In case of a full agonist, the EC50 values of the test compounds were calculated as the maximum response of AVP was considered to be 100% and in the case of a partial agonist, EC50 values of test compounds were calculated as the maximum response of own test compounds were considered to be 100%. The concentration that achieved to 50% response of the maximum response in a concentration-response curve was considered as EC50 value. The values of EC50 obtained in this study were shown in Table 84 described below as indications of the agonism of human V2 receptor.
The Preparation of the Cells Using Confirmation Study of an Agonism of Human V2 Receptor (HEK293 Cells Coexpressed Human V2 Teceptor and Gqs Chimeric Protein)
HEK293 cells (American Type Culture Collection) were incubated in the Eagle's Minimum Essential Medium (EMEM, Invitrogen) containing 1 mM sodium pyruvate, nonessential amino acids (0.1 mM), streptomycin (100 μg/mL), penicillin (100 U/mL), 10% fetal calf serum (Sanko chemicals) in an incubator with 5% CO2 at 37° C. The transfection was carried out by adding pCI-neo hV2 expression vector, expression vector inserted with the sequence coding Gqs chimeric protein (pLEC-Gqs5, LiveWare, Molecular Devices) and Lipofectamine2000 (Invitrogen), all diluted with OPTI-MEM I Reduced Serum Medium I (Invitrogen), to the cell suspension which was prepared from the confluent cells suspended with EMEM as mentioned above without antibiotics at 1×10^6 cells/mL. After the transfection, the cells (HEK293 cells coexpressed human V2 receptor and Gqs chimeric protein) were incubated in an incubator with 5% CO2 for two days and were used as cells for confirming agonism of human V2 receptor, and used for assessment of the test compounds. The expression plasmid vector of human V2 receptor represented as pCI-neo/hV2 above was constructed by the method as described below.

[4] = test system: Male SD rats; assay: Acute toxicity test; assay type: in vivo; details: 10 mg/kg intravenously, N=2, one hour experimental period, urethane anesthesia
Protocol: Male SD rats (250-300 g weight) were divided into some groups (N=2) and each cannula was inserted into trachea and jugular vein under anesthesia with urethane (1.5 g/kg, subcutaneously). The test compound solutions were prepared with an adequate solvent to be a dosage of 10 mg/kg, and then the solution was administered intravenously via cannula. The survival rate was determined for an hour experimental period.

Row | Structure (SMILES) | Ki [2] [nM] | EC50 [3] [nM] | I A (intrinsic activity) [3] | Antidiuretic effect (decreasing rate of urine volume) [1] [%] | Duration tine [1] [min] | Dead [4]
1 | C[C@@H]1CN(C(=O)c2ccc(-n3cccn3)cc2Cl)c2ccccc2CN1C(=O)NCC(=O)O [Example 3-1, {[(R)-1-(2-Chloro-4-pyrazol-1-ylbenzoyl)-3-methyl-1,2,3,5-tetrahydrobenzo[e]-1,4-diazepin-4-carbonyl]amino}acetic acid] | 19.7 | 9.4 | 0.59 | −88.7 | 60 | 
2 | C[C@@H]1CN(C(=O)c2ccc(OCCO)cc2Cl)c2ccccc2CN1C(=O)NCC(=O)O [Example 3-6] |  | 15.4 | 0.93 |  |  | 
3 | C[C@@H]1CN(C(=O)c2ccc(-n3cccn3)cc2Cl)c2ccccc2CN1C(=O)NCCO [Example 4, N-(2-Hydroxyethyl)-(R)-1-(2-chloro-4-pyrazol-1-ylbenzoyl)-3-methyl-1,2,3,5-tetrahydrobenzo[e]-1,4-diazepin-4-carboxamide] | 61.9 | 16 | 0.75 |  |  | 
4 | C[C@@H]1CN(C(=O)c2ccc(-n3cccn3)cc2Cl)c2ccccc2CN1C(=O)NCC(N)=O [Example 5-2] | 35.5 | 7.3 | 0.71 | −83.9 | 50 | 0/2
5 | C[C@@H]1CN(C(=O)c2ccc(-n3cccn3)cc2Cl)c2ccccc2CN1C(=O)NCC(=O)N(C)C [Example 5-4] |  | 27.6 | 0.49 | −90.4 | 80 | 0/2
6 | C[C@@H]1CN(C(=O)c2ccc(-n3cccn3)cc2Cl)c2ccccc2CN1C(=O)NCC(=O)N1CCCC1 [Example 5-5] |  | 24.9 | 0.83 | −89.4 | 90 | 0/2
7 | C[C@@H]1CN(C(=O)c2ccc(-n3cccn3)cc2Cl)c2ccccc2CN1C(=O)NCC(=O)N1CCCCC1 [Example 5-6] |  | 17.3 | 0.92 |  |  | 
8 | C[C@@H]1CN(C(=O)c2ccc(-n3cccn3)cc2F)c2ccccc2CN1C(=O)NCC(N)=O [Example 5-15] |  | 9.1 | 0.71 |  |  | 
9 | C[C@@H]1CN(C(=O)c2ccc(-n3cccn3)cc2Cl)c2ccc(F)cc2CN1C(=O)NCC(N)=O [Example 5-19] |  | 15.6 | 0.57 |  |  | 

Second part, led by results:

Row | Ki [2] [nM] | EC50 [3] [nM] | I A (intrinsic activity) [3] | Structure (SMILES) | Antidiuretic effect (decreasing rate of urine volume) [1] [%] | Duration tine [1] [min] | Dead [4]
10 | 14 | 9.1 | 0.48 | CNC(=O)CNC(=O)N1Cc2ccccc2N(C(=O)c2ccc(-n3cccn3)cc2Cl)C[C@H]1C [Example 5-3] |  |  | 
11 |  | 8.6 | 0.75 | C[C@@H]1CN(C(=O)c2ccc(-n3cccn3)cc2C(F)(F)F)c2ccccc2CN1C(=O)NCC(N)=O [Example 5-11] |  |  | 
12 |  | 6.5 | 0.79 | Cc1cc(-n2cccn2)ccc1C(=O)N1C[C@@H](C)N(C(=O)NCC(N)=O)Cc2ccccc21 [Example 5-12] |  |  | 
13 | 27.8 | 2.2 | 0.89 | C[C@@H]1CN(C(=O)c2ccc(N3CCCC3)cc2Cl)c2ccccc2CN1C(=O)NCC(N)=O [Example 5-18] |  |  | 
